# Tests used:
# [1] = system: HIV-1; details: 48 weeks; atazanavir 300 mg/ritonavir 100 mg QD with Truvada versus lopinavir/r; cited from earlier work
# [2] = system: CCR5 tropic HIV-1 virus; details: maraviroc 300 mg QD arm, preliminary results; cited from earlier work
# [3] = system: CCR5-tropic HIV; assay: Randomized controlled study of atazanavir/ritonavir QD with maraviroc or Truvada in treatment-naïve patients, 24 weeks; type: in vivo, human; details: with atazanavir 300 mg QD and ritonavir 100 mg QD
# Source text: To ascertain whether a once daily, nucleoside-sparing regimen using a CCR5 antagonist could be safely and efficaciously administered to HIV-positive patients infected with CCR5-tropic HIV, a randomized, controlled study is being conducted.
Compound,non-inferiority primary endpoint of undetectable viral load (HIV-1 RNA less than 50 copies/mL) [1],non-inferiority versus the efavirenz arm [2],increase in CD4+ ([3]; after 24 weeks) [cells],"percentage of patients who achieved less than 50 copies/mL ([3]; week 24, HIV-1 RNA) [%]","percentage of patients who achieved less than 400 copies/mL ([3]; week 24, HIV-1 RNA) [%]"
COC(=O)N[C@H](C(=O)N[C@@H](Cc1ccccc1)[C@@H](O)CN(Cc1ccc(-c2ccccn2)cc1)NC(=O)[C@@H](NC(=O)OC)C(C)(C)C)C(C)(C)C [atazanavir],met the non-inferiority primary endpoint,–,–,–,–
"N-{(1S)-3-[3-(3-isopropyl-5-methyl-4H-1,2,4-triazol-4-yl)-exo-8-azabicyclo[3.2.1]oct-8-yl]-1-phenylpropyl}-4, 4-difluorocyclohexanecarboxamide [maraviroc]",–,did not meet the regulatory prespecified criteria for non-inferiority,195,80,90

# From patent US20130023496A1, “Combination Therapy Comprising A CCR5 Antagonist, A HIV-1 Protease Inhibtior and a Pharmacokinetic Enhancer” (priority 2010, published 2013)
